Each structure is given as a SMILES string. “And” between values parts separate entries of the source, which are not always exact repeats. Equal entries are not always repeated.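 Interpolation was linear, between the two tested concentrations surrounding the appropriate level; five concentrations were tested over 48 hours in 96-well plates. At the GI50, growth is halved. TGI: concentration producing complete growth inhibition.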 Where a SMILES comes first, the peptide text is derived from it. [ ]: non-standard residue; d: D form. The star is where a group is joined. ξ: configuration not given here. ξPhe(4-NO2) = NC(Cc1ccc([N+](=O)[O-])cc1)C(=O)O; Boc = CC(C)(C)OC(=O)* A value given as a limit tells only on which side of the number the result lay.

Experiment in all cases: growth of human tumour cells (NCI), 48 h
The test system of test [1] is A549 NSCLC.
The subject of test [2] is BT-549 breast.
Test [3] deals with HOP-62 NSCLC.
Test [4] has as its system LOX IMVI melanoma.
In test [5] the test system is MDA-N.
The subject of test [6] is NCI-H226 lung.
The test system of test [7] is RPMI-8226 leukemia.
Test [8] deals with SK-MEL-28 melanoma.
The subject of test [9] is SK-MEL-5 melanoma.
In test [10] the test system is SN12C renal.
For test [11], the system named is SR leukemia.
The subject of test [12] is UACC-62 melanoma.

As for `COC(=O)/C=C/c1cnc2c(c1)oc(=O)n2C`, the TGI in test [1], in test [2], in test [3], in test [4], in test [5] and in test [6] was more than 100 µM each time. The TGI in test [7], in test [8], in test [9], in test [10], in test [11] and in test [12] was more than 100 µM throughout.
In the case of `CCSc1nc(C)nc2c1sc1nc3ccccc3n12`, the TGI in test [1], in test [2], in test [4], in test [5], in [6] and in test [7] was more than 100 µM each time. In addition, the TGI in test [8], in [9], in [10], in test [11] and in [12] was more than 100 µM each time.
On to `CN(/N=C/c1ccccc1C(=O)O)C1=NCCCCN1`, for which the TGI in test [1], in test [2], in [3], in [4], in test [5] and in test [6] was more than 100 µM each time. Moreover, the TGI in test [7], in test [9], in test [10], in test [11] and in [12] was more than 100 µM in each case.
As for `COc1ccc(Br)c(C=Nc2cccc3cc(OC)c(OC)cc23)c1`, the TGI is more than 100 µM in test [1]; more than 46 µM in test [2]; more than 100 µM in test [3]; 19.2 µM in test [4]; more than 41.4 µM in test [5]; more than 100 µM in [6]. The TGI in test [7] is more than 46.3 µM; in test [8], more than 100 µM; in [9], more than 94.9 µM; in test [10], more than 46.4 µM; in [11], 11.6 µM; in [12] it was more than 83 µM.
Regarding `Cc1nn(C(=O)c2ccncc2)c2c1C(c1ccc([N+](=O)[O-])cc1)SC(N)=N2` (stereo not given), the TGI in [1], in [2], in test [3], in test [4], in [5] and in test [6] was more than 100 µM each time. Moreover, the TGI in [7], in test [8], in test [9], in test [10], in [11] and in test [12] was more than 100 µM in each case.
With `N#CC1=C(S)N(C2OC(CO)C(O)C(O)C2O)C(c2ccccc2)=CC1c1cccs1` (stereo not given), the TGI in test [1] came out at 45.6 µM; in [2], 30.4 µM; in test [3], 57 µM; in test [4], 36.9 µM; in test [5], 30.9 µM; in [6], 41.3 µM. The TGI in test [7] was more than 100 µM; in test [8], 41.4 µM; in test [9], 31 µM; in test [10], 32.4 µM; in test [11], more than 100 µM; in test [12] it was 48.3 µM.
Turning to `Nc1ncnc2c1cnn2COCC(O)CO` (stereo not given), the TGI in [1], in test [2], in [3], in [4], in [5] and in test [6] was more than 100 µM in each case. The TGI in [7], in [8], in test [9], in test [10], in test [11] and in test [12] was more than 100 µM each time.
Regarding `CCNC(=O)CNC(=O)C(Cc1ccc([N+](=O)[O-])cc1)NC(=O)OC(C)(C)C` (stereo not given) (Boc-[ξPhe(4-NO2)]-Gly-NHEt), the TGI in [1], in test [2], in test [3], in [4], in test [5] and in test [6] was more than 100 µM in each case. Besides, the TGI in test [7], in test [8], in [9], in test [10], in test [11] and in [12] was more than 100 µM throughout.
On to `CC1(C)CC[C@]2(C(=O)O)CC[C@]3(C)C(=CC[C@@H]4[C@@]5(C)CC[C@H](OC6OC(CO)C(O)C(O)C6O)C(C)(C)[C@@H]5CC[C@]43C)[C@@H]2C1` (stereo not given in full), for which the TGI in test [1] was 3.08 µM; in test [2] it was 2.59 µM; in [3], 3.14 µM; in test [4] it was 3.23 µM; in test [5], 3.54 µM; in test [6] it was 3.4 µM. Besides, the TGI in test [7] was determined as 6.08 µM; in test [8], 3.69 µM; in test [9], 3.54 µM; in [10], 3.07 µM; in test [11], 5.53 µM; in [12], 3.28 µM.
For the molecule `COc1ccc(C(=O)N(Cc2cccnc2)C(=S)N(Cc2cccnc2)C(=O)c2ccc(OC)cc2)cc1`, the TGI in test [1], in [2], in test [3], in test [4], in test [5] and in test [6] was more than 100 µM throughout. The TGI in test [7], in test [8], in test [9], in [10], in [11] and in test [12] was more than 100 µM throughout.
Regarding `O=C(NNC(=O)c1c(Cl)c(Cl)c(Cl)c(Cl)c1-c1nc2ccccc2[nH]1)c1ccc(Cl)cc1`, the TGI is more than 100 µM in test [1]; more than 100 µM in [2]; more than 100 µM in test [3]; more than 100 µM in [4]; 53.4 µM in [5]; more than 100 µM in test [6]. Also, the TGI was 98.5 µM in test [7]; more than 100 µM in test [8]; more than 100 µM in test [9]; more than 100 µM in test [10]; more than 100 µM in test [11]; more than 100 µM in test [12].
As for `CCOC(=O)C(=O)C(/C(=N/N(C)C)C(=O)Nc1ccc(C)cc1C)c1nc2ccccc2[nH]c1=O` (stereo not given), the TGI in [1], in [2], in test [3], in test [4], in [5] and in test [6] was more than 100 µM throughout. Further, the TGI in test [7], in [8], in test [9], in [10], in test [11] and in [12] was more than 100 µM throughout.
For the molecule `Fc1cc2nc3n(c2cc1F)C(c1c(Cl)cccc1Cl)SC3` (stereo not given), the TGI turned out to be 28 µM in [1]; 40.3 µM in [2]; 29.6 µM in test [3]; 31.7 µM in test [4]; 29.5 µM in test [5]; 45.7 µM in test [6]. In addition, the TGI in [7] came out at 36.5 µM; in test [8], 28.6 µM; in test [9], 20.4 µM; in test [10] it was 29.8 µM; in test [11], 48.5 µM; in test [12], 26.4 µM.
For the molecule `C=COC(=O)N1C2CCCC(Cl)(C(C)=O)C1CC2` (stereo not given), the TGI in test [1], in [2], in test [3], in test [4], in test [5] and in [6] was more than 100 µM each time. Further, the TGI in test [7], in test [8], in [9], in test [10], in [11] and in test [12] was more than 100 µM throughout.
`COC(=O)C1SC[C@H]2C(=O)N(c3ccccc3)C(=O)N12` (stereo not given in full): the TGI in test [1], in test [2], in test [3], in [4], in test [5] and in test [6] was more than 100 µM in each case. For the same molecule, the TGI in [7], in test [8], in test [9], in test [10], in [11] and in [12] was more than 100 µM each time.
Turning to `CN(C(=O)c1ccc(Cl)cc1)C(=S)N1CCN(c2ccccc2)CC1`, the TGI in test [1], in [2], in test [4], in test [5], in [6] and in [7] was more than 100 µM each time. In addition, the TGI in [8], in test [9], in test [10], in test [11] and in test [12] was more than 100 µM throughout.
As to `Cc1c(C#N)c(N)n(C2OC(CO)C(O)C(O)C2O)c(=S)c1C#N` (stereo not given), the TGI is more than 100 µM in [1]; 68.6 µM and > 100 µM in test [2]; more than 100 µM in test [3]; more than 100 µM in test [4]; more than 100 µM in test [5]; more than 100 µM in test [6]. Further, the TGI in test [7], in [8], in test [9], in test [10], in [11] and in test [12] was more than 100 µM in each case. In addition, the GI50 in [2] is 18.5 µM and > 100 µM.
Consider `O=C(c1cccc2cc(O)ccc12)c1cn(CCN2CCOCC2)c2ccccc12`, for which the TGI in [2] was 56.9 µM; in [3], 46.1 µM; in test [4] it was 39.1 µM; in [5] it was 58.3 µM; in test [6], 87.3 µM; in test [7], 68.8 µM. Also, the TGI in test [8] was more than 100 µM; in test [9] it was 55.3 µM; in test [10], more than 100 µM; in test [11] it was more than 100 µM; in [12] it was 38.5 µM.
Take `N#Cc1c2ccc([N+](=O)[O-])cc2c(=O)n2c1sc1ccccc12`: the TGI in test [1] is 28.5 µM; in test [2], more than 100 µM; in [4] it was more than 100 µM; in [5] it was more than 100 µM; in test [6], 47.5 µM; in test [7] it was 40.5 µM. The TGI in [8] was more than 100 µM; in test [9], more than 100 µM; in test [10] it was more than 100 µM; in test [11], 24.4 µM; in test [12], more than 100 µM.
For the molecule `Cc1ccc(N2C3=C(CC4=C2CC(C)(C)CC4=O)C(=O)CC(C)(C)C3)cc1`, the TGI in test [1], in [2], in [3], in test [4], in test [5] and in test [6] was more than 100 µM throughout. Moreover, the TGI in test [7], in [8], in test [9], in test [10], in test [11] and in test [12] was more than 100 µM throughout.
As for `CNC(=O)OCC1=C(COC(=O)NC)C(C)N(c2ccccc2)C1` (stereo not given), the TGI in [1] was more than 100 µM; in test [2], more than 100 µM; in test [3] it was more than 100 µM; in [4], more than 100 µM; in [5] it was more than 100 µM; in test [6], 77.3 µM. Also, the TGI was 83 µM in test [7]; more than 100 µM in [8]; 41.6 µM in [9]; more than 100 µM in test [10]; 67.4 µM in [11]; 68.8 µM in test [12].
Turning to `NC(Cc1ccc(O)cn1)C(=O)O` (stereo not given), the TGI in [1], in test [2], in test [3], in [4], in test [5] and in test [6] was more than 100 µM in each case. Also, the TGI in test [7], in test [8], in test [9], in [10] and in [11] was more than 100 µM in each case.
For the molecule `C=C(C1=CC(=O)C(C)(C)O1)[C@@H]1CC=C([C@@H]2CC[C@H]3[C@@]2(C)CC[C@H]2C(C)(C)C(=O)[C@H](OC(=O)CC(C)(O)CC(=O)O)C[C@]32C)[C@H](O)O1` (stereo not given in full), the TGI in test [1] was found to be 40.3 µM; in test [2], 13.4 µM; in [3], 35 µM; in [4], 25.9 µM; in test [5] it was 30.5 µM; in test [6] it was 31.3 µM. The TGI came to 5.24 µM in test [7]; 24.4 µM in test [9]; 28 µM in test [10]; 49.2 µM in [11]; 23.5 µM in test [12].

For the origin of these results see PubChem BioAssay (NCI).
